Experimental data: patent publication US10562857B2 (AFASCI, Inc., priority 2015, dated 2020)
Entries after “also recorded” stand apart in the source; their conditions may differ.

Legend:
[1] = tested on: formalin-induced inflammation in mice; assay: Formalin-induced pain in mice; format: in vivo, mouse; details: 30 mg/kg I.P. 30 min before 10% formalin
Description: FIG. 8. Effects of EXAMPLE-128 (30 mg/kg, I.P.) or vehicle on formalin-induced inflammation in male mice (C57BL/6, ˜3 months old; n=8 mice per group). The test compound was I.P. administered 30 min prior to local injection of 10% formalin into the left hindpaw (10 μl). Time spent in grooming, licking or biting the injury paw was manually scored immediately following formalin injection in 5-min time bin for 45 min.
Formalin-induced biphasic response, nociception followed by inflammatory pain in a mouse hindpaw, is an acute pain and chemical-induced inflammatory pain model. The EXAMPLE-128 was tested in this model. Mice (C57BL/6, male, ˜2 months old; n=8 mice per treatment group) received a 10 μl intraplantar injection of 10% formalin in saline into the left hindpaw. Pain response scoring includes counts per episode of time of reactions to the pain stimulus as indicated by licks, twitches, raising or shaking of the injected paw.

[2] = SafetyScreen 44 ancillary pharmacology panel
From the text: (§1) Moreover, compounds useful in therapeutic formulations may be further screened for undesired side effect activities by utilizing large ancillary pharmacology panel screens, for example, SafetyScreen 44 and the Ames microsomemutagenicity assay (Eurofins-Cerep, US and France).

[3] = tested on: baclofen-induced absence seizures in mice; assay: Baclofen-induced absence seizures in mice (EEG spike wave discharges); format: in vivo, mouse; details: 30 mg/kg I.P. 30 min before baclofen
From the text: FIG. 11. Effects of EXAMPLE-128 on baclofen-induced absence seizures in mice.
Absence seizures, especially childhood absence epilepsy, is characterized by a brief loss of consciousness and muscle tone as the primary manifestations. Ethosuximide, a weak and non-selective T-type calcium channel inhibitor, is effective in treating only absence seizures (Huguenard J R, 2002); while the GABAB baclofen exacerbates transgenic absence seizure models and alone induces absence seizures in wild-type animals (Han et al., 2012). […] The baclofen-induced brain seizure activity mimics absence seizures.

[4] = tested on: Ames microsomemutagenicity assay; assay: Ames microsome mutagenicity assay; format: cell-based
From the text: as §1

[5] = tested on: incision-induced pain in mice; assay: Incision-induced acute pain in mice, von Frey test; format: in vivo, mouse; details: 30 mg/kg I.P.
Description: FIG. 9. Effects of EXAMPLE-116, -118 or ML218 (a reference compound) on incision-induced acute pain in mice (C57BL/6, male, ˜2 months old; n=8 mice per treatment group). Mechanical pain threshold assessment (von Frey monofilament test) of the mice's incision left hindpaws. Each mouse received either EXAMPLE-116, -118, or ML218 (as a reference compound, each 30 mg/kg, I.P.) or vehicle (2% DMSO in 0.5% HPC, I.P.). Mechanical pain responses were measured at 0.5, 1, 2, 4, and 5 hours after treatment.
To further confirm the Cav3 modulator effects on acute pain and neurogenic inflammatory pain, an incision-pain mode in mice was used. Postoperative pain model induced by a deep incision in the hindpaw produces robust mechanical allodynia (Pogatzki et al., 2003). Mechanical pain thresholds were assessed using von Frey monofilament test of the incised left hindpaws. Each mouse received either EXAMPLE-116, -118, ML218 (as a reference compound, each 30 mg/kg, I.P.) or vehicle (2% DMSO in 0.5% HPC, I.P., n=8 mice per treatment group). Mechanical pain responses were measured at 0.5, 1, 2, 4, and 5 hours after treatment.

SNI rats = assay: Spared nerve injury (SNI) rats, Hargreaves thermal test; format: in vivo, rat; details: 30 mg/kg, 1 mL I.P.
Description: FIG. 3A. Spared Nerve Injury (SNI) rats' left hindpaw withdrawal latencies in response to thermal stimulation (Hargreaves test). Each SNI rat received either EXAMPLE-106, 107, or 115, (each 30 mg/kg, 1 mL I.P.), or vehicle (2% DMSO in 0.5% HPC). Sham rats also received vehicle I.P. injections. […] 40 seconds were cutoff in order to prevent tissue damage. The sham-vehicle serves as a positive control (n=8 per treatment group).
In additional examples shown here, the analgesic effects were further evaluated in another rat species. Baseline thermal and mechanical thresholds of male rats (Sprague-Dawley rats, 275 g-325 g, Harlan) were taken prior to surgery; baseline thresholds were measured on the rats' left hindpaws. Thirty-two rats underwent the SNI surgery on their left hind leg; 8 rats underwent surgery without injury of the nerves as a sham group. Two weeks post-surgery, the thermal thresholds of each rat were reassessed. […] Each rat received either EXAMPLE-106, -107, -115 (each 30 mg/kg, 1 mL I.P.), or vehicle (2% DMSO in 0.5% HPC). Thermal and mechanical thresholds were measured at 1, 2, 3, 4, 5, 6, 7, and 8 hours post-treatment/dosing. […] The drug actions started around 1 hour post-injection and peaked between 2 and 3 hours, and the drug effects gradually declined to pre-treatment levels over 6-7 hours (FIGS. 3A and B).

[6] = tested on: taxol-induced neuropathic pain model in mice; assay: Taxol-induced neuropathic pain in mice, von Frey test; format: in vivo, mouse; details: taxol 4 mg/kg I.P., 3, 10 or 30 mg/kg I.P.
Description: FIG. 6A. Effects of EXAMPLE-115 on taxol (4 mg/kg, I.P.)-induced neuropathic pain model in mice. Mechanical pain thresholds of left hindpaws were assessed using von Frey monofilament test. Each mouse received either EXAMPLE-115 (3, 10 or 30 mg/kg, I.P.) or vehicle (2% DMSO in 0.5% HPC, I.P.; n=8 per group). Injection of taxol lowered mechanical pain thresholds.
FIG. 6B. Effects of EXAMPLE-123 on taxol (4 mg/kg, I.P.)-induced neuropathic pain model in a separate cohort of mice. Mechanical pain thresholds of left hindpaws were assessed using von Frey monofilament test. Each mouse received either EXAMPLE-123 (30 mg/kg, I.P., n=8) or vehicle (2% DMSO in 0.5% HPC, I.P.).
Chemotherapy-induced painful neuropathy is a common side effect associated with chronic treatment with Taxol (paclitaxel) or other anticancer drugs based on cytotoxicity. Taxol or paclitaxel is one of the most popular drugs used for the treatment of various cancers (Chaudhry et al., 1994). The chemotherapy-induced peripheral neuropathy manifests as chronic hyperalgesia and other sensory abnormalities. Taxol (Sigma, 4.0 mg/kg, I.P.) was dissolved in saline containing 5% DMSO (vehicle) and injected to mice (freshly prepared before injection).

SMILES: CC(C)(C)NC(=O)CN1CCC2(CC1)CC2NC(=O)c1cc(F)cc(Cl)c1 (single isomer, unassigned) [Example 128, (S)—N-(6-(2-(tert-Butylamino)-2-oxoethyl)-6-azaspiro[2.5]octan-1-yl)-3-chloro-5-fluorobenzamide or (R)—N-(6-(2-(tert-Butylamino)-2-oxoethyl)-6-azaspiro[2.5]octan-1-yl)-3-chloro-5-fluorobenzamide]
- formalin-induced biphasic pain response [1]: produced inhibition of both phases
- off-target activities [2]: no significant off-target activities
- spike wave discharges (SWD) occurring frequency [3]: significantly reduced the SWD occurring frequence; also recorded: significantly reduced the SWD occurring frequency
- mutagenicity [4]: lack of mutagenicity

SMILES: CC(C)(C)CCN1C[C@@H]2[C@@H](CNC(=O)c3cc(Cl)cc(Cl)c3)[C@@H]2C1 [ML218, 3,5-Dichloro-N-[[(1α,5α,6-exo,6α)-3-(3,3-dimethylbutyl)-3-azabicyclo[3.1.0]hex-6-yl]methyl]benzamide, reference compound]
- mechanical pain threshold, incision-induced pain [5]: inhibited incision-induced inflammatory pain

SMILES: O=C(Nc1nnc(-c2ccccc2)o1)c1ccc(Cl)s1 [Example 115, 5-Chloro-N-(5-phenyl-1,3,4-oxadiazol-2-yl)thiophene-2-carboxamide]
- left hindpaw withdrawal latency to thermal stimulation (hyperalgesia) (SNI rats): elevated both thermal and mechanical thresholds; also recorded: reduced hyperalgesia
- mechanical pain threshold, taxol-induced neuropathic pain [6]: produced significant effects on Taxol-induced pain compared to vehicle in a dose-dependent manner; also recorded: reversed the taxol-induced neuropathic pain in a dose-dependent manner
